Test results as given in article PMC10507666, “Trifluoromethylthiolation of Tryptophan and Tyrosine Derivatives: A Tool for Enhancing the Local Hydrophobicity of Peptides” (The Journal of Organic Chemistry, 2023).
Where a name gives a salt, the structure may show the parent alone. Residues, ends and D or L forms follow the SMILES beside them.

What was measured:
[1] = Chromatographic hydrophobicity index (CHI/HI, ϕ0) determination by isocratic RP-HPLC at pH 7; type: physicochemical; conditions: for Hydrophobicity index (HI): chromatographic, ϕ0 = –log k'w/S, pH 7, 50 mM ammonium acetate in mQ H2O / MeCN (6–22%), linear regression of four log k' values per peptide, UV 254 nm, Figure 1A; for Hydrophobicity index (HI) / k' (retention factor) / log(k'): isocratic RP-HPLC; for k' (retention factor) / log(k'): pH 7, UV 254 nm; for intercept log k'w at MeCN% = 0: linear regression of log k' versus MeCN content, pH 7, 50 mM ammonium acetate, Figure S5; for ΔHI (HI(CF3S)AA – HIAA): shift versus non-fluorinated tripeptide counterpart, chromatographic HI at pH 7
Excerpt: The hydrophobicity index (HI) shift ΔHI (HI(CF3S)AA – HIAA) is an assessment of the contribution of the CF3S substituent to the increase in local hydrophobicity. This method, developed by Valkó et al.,[27] has already been successfully applied to measure the increased local hydrophobicity of peptides containing fluorinated AAs.[6b],[28] This short peptide sequence was chosen to prevent the formation of secondary structures that could affect hydrophobicity (see the Supporting Information, Chapter 6, for details). […] It is noteworthy that the replacement of the Tyr residue with its CF3S-Tyr analogue provides a higher local enhancement of the hydrophobicity (ΔHI = HI(CF3S)Tyr – HITyrca. 12 units) compared to the Trp series (ΔHI = HI(CF3S)Trp – HITrpca. 8 units).
6. Hydrophobicity index determination
The peptides were prepared according to the SPPS general procedure.
The chromatographic hydrophobicity index (CHI) was determined according to the protocols described previously. 17 Experiments were performed at pH 7 using 50 mM ammonium acetate in mQ H2O and MeCN as mobile phase. Peptides 9-12 were dissolved in 50 mM ammonium acetate before injection (25 µL injection volume). Retention factors (k') were determined at λ = 254 nm at various MeCN concentrations ranging from 6–22% (k' = (tR–t0) / […]). Then, log k' was expressed as a function of MeCN content and linear regression was applied to four values per peptide. The intercept log k'w at MeCN% = 0 and the slopes S were extracted from the linear fit for each peptide (correlation coefficient: R2 > 0.99). The isocratic hydrophobicity index (CHI) was calcd for each peptide using the following equation: […]
RP-HPLC analysis: >95% purity; tR = 10.42 min (7% MeCN in ammonium acetate buffer (pH […]
(1 picture or pasted object on this page, not shown here)
Table of retention times (tR), dead times (t0), and calculated log k' and CHI for peptides 9-12 at pH 7: […]
Peptide 12 (22% MeCN in 50 mM ammonium acetate buffer, pH 7, 1 mL/min):
Chromatographic hydrophobicity index C HI (pH 7) of peptides 9-12 […]
Figure S5: RP-HPLC determination of the chromatographic hydrophobicity index CHI for peptides 9-12 at pH 7 by linear regression of log k' values as a function of MeCN content.

[2] = RP-HPLC retention time of EM-1 analogues (gradient); type: physicochemical; conditions: RP-HPLC analysis, gradient 20% → 60% MeCN + 0.1% TFA in H2O + 0.1% TFA; retention time used as support for enhanced local hydrophobicity
[3] = CF3S-tyramine versus tyramine, from pKa values in H2O/D2O 90:10
Excerpt: Figure 1 Biophysical property evaluation.
Finally, we assessed the influence of the CF3S group on the acidity of the vicinal phenol function in a simplified tyramine model carrying an ortho CF3S.

[4] = 12% MeCN in 50 mM ammonium acetate buffer
[5] = 13% MeCN in 50 mM ammonium acetate buffer
[6] = 14% MeCN in 50 mM ammonium acetate buffer
[7] = 15% MeCN in 50 mM ammonium acetate buffer
[8] = 17% MeCN in 50 mM ammonium acetate buffer
[9] = 18% MeCN in 50 mM ammonium acetate buffer
[10] = 19% MeCN in 50 mM ammonium acetate buffer
[11] = 20% MeCN in 50 mM ammonium acetate buffer
[12] = 21% MeCN in 50 mM ammonium acetate buffer
[13] = 22% MeCN in 50 mM ammonium acetate buffer
[14] = 6% MeCN in 50 mM ammonium acetate buffer
[15] = 7% MeCN in 50 mM ammonium acetate buffer
[16] = 8% MeCN in 50 mM ammonium acetate buffer
[17] = 9% MeCN in 50 mM ammonium acetate buffer

For `CC(C)C[C@H](NC(=O)[C@H](Cc1c[nH]c2ccccc12)NC(=O)[C@H](C)N)C(=O)O` [compound 10, TFA·H2N-Ala-Trp-Leu-OH] (H-Ala-Trp-Leu-OH), the “Hydrophobicity index (HI)” value [1] was 19.13, the “k' (retention factor)” value [1, 4] was 7.397 and the “log(k')” value [1, 4] was 0.869. For the same molecule, the “k' (retention factor)” value [1, 5] was 5.507, the “log(k')” value [1, 5] was 0.741 and the “k' (retention factor)” value [1, 6] was 4.188. For the same molecule, the “log(k')” value [1, 6] was 0.622, the “k' (retention factor)” value [1, 7] was 3.191 and the “log(k')” value [1, 7] was 0.504. For the same molecule, the “intercept log k'w at MeCN% = 0” value [1] was 2.3234.
With `CC(C)C[C@H](NC(=O)[C@H](Cc1ccc(O)c(SC(F)(F)F)c1)NC(=O)[C@H](C)N)C(=O)O` [compound 11, TFA·H2N-Ala-(CF3S)Tyr-Leu-OH] the “Hydrophobicity index (HI)” value [1] was 23.27, the “k' (retention factor)” value [1, 7] was 9.198 and the “log(k')” value [1, 7] was 0.964. The “k' (retention factor)” value [1, 8] was 5.352, the “log(k')” value [1, 8] was 0.729 and the “k' (retention factor)” value [1, 9] was 4.091. The “log(k')” value [1, 9] was 0.612, the “k' (retention factor)” value [1, 10] was 3.149 and the “log(k')” value [1, 10] was 0.498. For the same molecule, the “intercept log k'w at MeCN% = 0” value [1] was 2.7107 and the “ΔHI (HI(CF3S)AA – HIAA)” value [1] was “ca. 12 units”.
For `CC(C)C[C@H](NC(=O)[C@H](Cc1c(SC(F)(F)F)[nH]c2ccccc12)NC(=O)[C@H](C)N)C(=O)O` [compound 12, TFA·H2N-Ala-(CF3S)Trp-Leu-OH], the “Hydrophobicity index (HI)” value [1] was 27.15, the “k' (retention factor)” value [1, 10] was 9.031 and the “log(k')” value [1, 10] was 0.956. For the same molecule, the “k' (retention factor)” value [1, 11] was 6.844, the “log(k')” value [1, 11] was 0.835 and the “k' (retention factor)” value [1, 12] was 5.211. For the same molecule, the “log(k')” value [1, 12] was 0.717, the “k' (retention factor)” value [1, 13] was 4.025 and the “log(k')” value [1, 13] was 0.605. For the same molecule, the “intercept log k'w at MeCN% = 0” value [1] was 3.1793 and the “ΔHI (HI(CF3S)AA – HIAA)” value [1] was “ca. 8 units”.
With `NC(=O)[C@H](Cc1ccccc1)NC(=O)[C@H](Cc1c[nH]c2ccccc12)NC(=O)[C@@H]1CCCN1C(=O)[C@@H](N)Cc1ccc(O)cc1` [EM-1, endomorphin-1, reference compound] the “tR” value [2] was 8.1 min.
For `NC(=O)[C@H](Cc1ccccc1)NC(=O)[C@H](Cc1c(SC(F)(F)F)[nH]c2ccccc12)NC(=O)[C@@H]1CCCN1C(=O)[C@@H](N)Cc1ccc(O)cc1` [(CF3S)Trp-EM-1], the “tR” value [2] was 10.9 min.
In the case of `NC(=O)[C@H](Cc1ccccc1)NC(=O)[C@H](Cc1c[nH]c2ccccc12)NC(=O)[C@@H]1CCCN1C(=O)[C@@H](N)Cc1ccc(O)c(SC(F)(F)F)c1` [(CF3S)Tyr-EM-1], the “tR” value [2] is reported as 11.6 min.
For CF3S-tyramine [6e], the “increase of the acidity of the vicinal hydroxyl group” value [3] was 100 fold.
In the case of `CC(C)C[C@H](NC(=O)[C@H](Cc1ccc(O)cc1)NC(=O)[C@H](C)N)C(=O)O` [compound 9, TFA·H2N-L-Ala-L-Tyr-L-Leu-OH] (H-Ala-Tyr-Leu-OH), the “Hydrophobicity index (HI)” value [1] is reported as 11.37, the “k' (retention factor)” value [1, 14] is reported as 6.432 and the “log(k')” value [1, 14] is reported as 0.808. For the same molecule, the “k' (retention factor)” value [1, 15] was 4.433, the “log(k')” value [1, 15] was 0.647 and the “k' (retention factor)” value [1, 16] was 3.166. The “log(k')” value [1, 16] was 0.501, the “k' (retention factor)” value [1, 17] was 2.284 and the “log(k')” value [1, 17] was 0.359. For the same molecule, the “intercept log k'w at MeCN% = 0” value [1] was 1.6998.
